Experimental data from ChEMBL document CHEMBL6114968, “Discovery of BW710 as a potent, selective and orally bioavailable fibroblast growth factor receptor 2 (FGFR2) inhibitor” (Eur J Med Chem, 2025).

Columns and labels:
[1] = test system: BaF3; assay: Antiproliferative activity against mouse BaF3 cells expressing FGFR2 incubated for 72 hrs by CCK-8 assay; type: functional, cell-based; details: BaF3, 72 h
[2] = test system: BaF3; assay: Antiproliferative activity against mouse BaF3 cells expressing FGFR1 incubated for 72 hrs by CCK-8 assay; type: functional, cell-based; details: BaF3, 72 h
[3] = test system: BaF3; assay: Antiproliferative activity against mouse BaF3 cells incubated for 72 hrs by CCK-8 assay; details: BaF3, 72 h
[4] = Selectivity ratio of IC50 for antiproliferative activity against mouse BaF3 cells expressing FGFR1 to IC50 for antiproliferative activity against mouse BaF3 cells expressing FGFR2; type: functional

SMILES	IC50 [1] [nM]	IC50 [2] [nM]	IC50 [3] [nM]	Ratio IC50 [4]
C=CC(=O)Nc1ccc(-c2c(-c3ccc(S(C)(=N)=O)cc3)c3c(N)ncnc3n2C)cc1 (stereo not given)	914	> 1000	> 1000	
C=CC(=O)Nc1ccc(-c2c(-c3ccc(S(C)(=O)=Nc4ccccc4)cc3)c3c(N)ncnc3n2C)cc1 (stereo not given)	101	429	> 1000	
C=C(C)C(=O)Nc1ccc(-c2c(-c3ccc(S4(=O)=NCCCCC4)cc3)c3c(N)ncnc3n2C)cc1 (stereo not given)	14.6	> 1000	> 1000	
C=CC(=O)Nc1ccc(-c2c(-c3ccc(S(=N)(=O)CCC)cc3)c3c(N)ncnc3n2C)cc1 (stereo not given)	70.1	> 1000	> 1000	
C=CC(=O)Nc1ccc(-c2c(-c3ccc(S(=N)(=O)CC(C)(C)C)cc3)c3c(N)ncnc3n2C)cc1 (stereo not given)	2.9	684	> 1000	
C=C(C)C(=O)Nc1ccc(-c2c(-c3ccc(S4(=O)=NCCCCC4)c(F)c3)c3c(N)ncnc3n2C)cc1 (stereo not given)	105	> 1000	> 1000	
C=CC(=O)Nc1ccc(-c2c(-c3ccc(S(=N)(=O)CC)cc3)c3c(N)ncnc3n2C)cc1 (stereo not given)	320	> 1000	> 1000	
C=CC(=O)Nc1ccc(-c2c(-c3ccc(S4(=O)=NCCCC4)cc3)c3c(N)ncnc3n2C)cc1 (stereo not given)	12.1	> 1000	> 1000	
C=CC(=O)Nc1ccc(-c2c(-c3ccc(S(=O)(CC)=NC)cc3)c3c(N)ncnc3n2C)cc1 (stereo not given)	101	> 1000	> 1000	
C=CC(=O)Nc1ccc(-c2c(-c3ccc(S4(=O)=NCCOCC4)cc3)c3c(N)ncnc3n2C)cc1 (stereo not given)	310	> 1000	> 1000	
C=CC(=O)Nc1ccc(-c2c(-c3ccc(S(=N)(=O)c4ccccc4)cc3)c3c(N)ncnc3n2C)cc1 (stereo not given)	8.7	441	> 1000	
C=CC(=O)Nc1ccc(-c2c(-c3ccc(S4(=O)=NCCCCC4)cc3)c3c(N)ncnc3n2C)cc1 (stereo not given)	1.1	307	> 1000	>279
C=CC(=O)Nc1ccc(-c2c(-c3ccc(S(=N)(=O)C4CC4)cc3)c3c(N)ncnc3n2C)cc1 (stereo not given)	61.9	> 1000	> 1000	
C=CC(=O)Nc1ccc(-c2c(-c3ccc(S(=N)(=O)C4CCCC4)cc3)c3c(N)ncnc3n2C)cc1 (stereo not given)	6.6	885	> 1000	
C=C(C)C(=O)Nc1ccc(-c2c(-c3ccc(Oc4nccc(C)n4)c(F)c3)c3c(N)ncnc3n2C)cc1 [LIRAFUGRATINIB]	2.4	493		
